Reference: US20250051344A1, “BIFUNCTIONAL SELECTIVE DEGRADERS OF SMARCA2 AND THERAPEUTIC USES THEREOF” (Nurix Therapeutics, Inc., priority 2023, published 2025)

Tests used:
SMARCA2 = target: T1, SMARCA2 (Homo sapiens, UniProt P51531); test: SMARCA2 Cellular Degradation Assay (Western blot analysis on Jess platform); assay type: cell-based; conditions: for DC50 / Dmax: cellular degradation; for Fold Selectivity SMARCA4/2: ratio DC50 SMARCA4 / DC50 SMARCA2
T1 construct: endogenous in cells
Method in brief: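 Percent SMARCA2 remaining relative to vehicle was derived from capillary Western peak areas, each normalized to β-actin after capillary background subtraction. Samples were tumor-derived cell lysates, 5 μg total protein loaded, heated at 95° C. for 5 minutes before the Jess run.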

SMARCA4 = target: T2, SMARCA4 (Homo sapiens, UniProt P51532); test: Cellular degradation assay, SMARCA4 (Table 1); assay type: cell-based
T2 construct: endogenous in cells
T2 sequence (P51532 whole entry, species assumed): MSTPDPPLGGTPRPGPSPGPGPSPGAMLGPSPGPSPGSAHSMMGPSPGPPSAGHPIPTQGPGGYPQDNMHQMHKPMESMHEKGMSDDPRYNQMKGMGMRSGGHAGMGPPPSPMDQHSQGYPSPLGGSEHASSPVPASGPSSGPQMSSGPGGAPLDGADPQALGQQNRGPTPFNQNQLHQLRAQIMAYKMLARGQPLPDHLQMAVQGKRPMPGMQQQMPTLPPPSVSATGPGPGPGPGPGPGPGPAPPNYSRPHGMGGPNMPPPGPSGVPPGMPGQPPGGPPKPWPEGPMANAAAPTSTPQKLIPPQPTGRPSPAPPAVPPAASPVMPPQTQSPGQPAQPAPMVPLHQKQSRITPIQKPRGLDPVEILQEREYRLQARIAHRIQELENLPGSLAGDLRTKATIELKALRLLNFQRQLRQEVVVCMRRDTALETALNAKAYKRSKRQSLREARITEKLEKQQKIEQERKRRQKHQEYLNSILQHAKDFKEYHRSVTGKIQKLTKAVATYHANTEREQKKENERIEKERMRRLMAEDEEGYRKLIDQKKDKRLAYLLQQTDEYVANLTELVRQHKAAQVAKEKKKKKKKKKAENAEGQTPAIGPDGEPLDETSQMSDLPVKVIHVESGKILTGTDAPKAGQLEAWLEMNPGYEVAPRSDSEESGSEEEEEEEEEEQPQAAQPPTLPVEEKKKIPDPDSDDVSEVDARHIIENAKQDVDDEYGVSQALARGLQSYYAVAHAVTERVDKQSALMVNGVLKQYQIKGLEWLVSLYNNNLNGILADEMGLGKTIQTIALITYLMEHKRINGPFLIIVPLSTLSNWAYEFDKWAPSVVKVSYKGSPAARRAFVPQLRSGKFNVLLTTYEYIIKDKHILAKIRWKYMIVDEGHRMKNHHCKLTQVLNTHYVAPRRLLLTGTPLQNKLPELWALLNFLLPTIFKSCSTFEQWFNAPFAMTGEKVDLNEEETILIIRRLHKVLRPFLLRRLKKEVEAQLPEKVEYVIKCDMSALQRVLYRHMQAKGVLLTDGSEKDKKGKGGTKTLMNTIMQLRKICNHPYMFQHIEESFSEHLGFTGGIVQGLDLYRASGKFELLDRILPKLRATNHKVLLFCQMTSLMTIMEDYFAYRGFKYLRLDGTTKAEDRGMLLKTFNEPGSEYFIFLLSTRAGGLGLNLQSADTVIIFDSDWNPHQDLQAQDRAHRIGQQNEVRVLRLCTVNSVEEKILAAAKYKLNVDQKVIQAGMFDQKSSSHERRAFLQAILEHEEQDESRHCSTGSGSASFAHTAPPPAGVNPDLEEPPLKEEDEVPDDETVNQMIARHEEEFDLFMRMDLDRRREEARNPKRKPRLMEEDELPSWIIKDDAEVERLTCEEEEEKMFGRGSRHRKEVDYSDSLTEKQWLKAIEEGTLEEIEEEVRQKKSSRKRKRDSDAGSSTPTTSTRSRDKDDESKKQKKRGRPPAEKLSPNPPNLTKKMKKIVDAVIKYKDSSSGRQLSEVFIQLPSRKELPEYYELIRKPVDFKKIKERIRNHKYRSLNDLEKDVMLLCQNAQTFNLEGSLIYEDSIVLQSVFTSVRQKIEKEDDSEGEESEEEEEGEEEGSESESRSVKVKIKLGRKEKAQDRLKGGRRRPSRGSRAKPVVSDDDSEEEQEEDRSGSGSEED

T1 sequence (P51531 whole entry, species assumed): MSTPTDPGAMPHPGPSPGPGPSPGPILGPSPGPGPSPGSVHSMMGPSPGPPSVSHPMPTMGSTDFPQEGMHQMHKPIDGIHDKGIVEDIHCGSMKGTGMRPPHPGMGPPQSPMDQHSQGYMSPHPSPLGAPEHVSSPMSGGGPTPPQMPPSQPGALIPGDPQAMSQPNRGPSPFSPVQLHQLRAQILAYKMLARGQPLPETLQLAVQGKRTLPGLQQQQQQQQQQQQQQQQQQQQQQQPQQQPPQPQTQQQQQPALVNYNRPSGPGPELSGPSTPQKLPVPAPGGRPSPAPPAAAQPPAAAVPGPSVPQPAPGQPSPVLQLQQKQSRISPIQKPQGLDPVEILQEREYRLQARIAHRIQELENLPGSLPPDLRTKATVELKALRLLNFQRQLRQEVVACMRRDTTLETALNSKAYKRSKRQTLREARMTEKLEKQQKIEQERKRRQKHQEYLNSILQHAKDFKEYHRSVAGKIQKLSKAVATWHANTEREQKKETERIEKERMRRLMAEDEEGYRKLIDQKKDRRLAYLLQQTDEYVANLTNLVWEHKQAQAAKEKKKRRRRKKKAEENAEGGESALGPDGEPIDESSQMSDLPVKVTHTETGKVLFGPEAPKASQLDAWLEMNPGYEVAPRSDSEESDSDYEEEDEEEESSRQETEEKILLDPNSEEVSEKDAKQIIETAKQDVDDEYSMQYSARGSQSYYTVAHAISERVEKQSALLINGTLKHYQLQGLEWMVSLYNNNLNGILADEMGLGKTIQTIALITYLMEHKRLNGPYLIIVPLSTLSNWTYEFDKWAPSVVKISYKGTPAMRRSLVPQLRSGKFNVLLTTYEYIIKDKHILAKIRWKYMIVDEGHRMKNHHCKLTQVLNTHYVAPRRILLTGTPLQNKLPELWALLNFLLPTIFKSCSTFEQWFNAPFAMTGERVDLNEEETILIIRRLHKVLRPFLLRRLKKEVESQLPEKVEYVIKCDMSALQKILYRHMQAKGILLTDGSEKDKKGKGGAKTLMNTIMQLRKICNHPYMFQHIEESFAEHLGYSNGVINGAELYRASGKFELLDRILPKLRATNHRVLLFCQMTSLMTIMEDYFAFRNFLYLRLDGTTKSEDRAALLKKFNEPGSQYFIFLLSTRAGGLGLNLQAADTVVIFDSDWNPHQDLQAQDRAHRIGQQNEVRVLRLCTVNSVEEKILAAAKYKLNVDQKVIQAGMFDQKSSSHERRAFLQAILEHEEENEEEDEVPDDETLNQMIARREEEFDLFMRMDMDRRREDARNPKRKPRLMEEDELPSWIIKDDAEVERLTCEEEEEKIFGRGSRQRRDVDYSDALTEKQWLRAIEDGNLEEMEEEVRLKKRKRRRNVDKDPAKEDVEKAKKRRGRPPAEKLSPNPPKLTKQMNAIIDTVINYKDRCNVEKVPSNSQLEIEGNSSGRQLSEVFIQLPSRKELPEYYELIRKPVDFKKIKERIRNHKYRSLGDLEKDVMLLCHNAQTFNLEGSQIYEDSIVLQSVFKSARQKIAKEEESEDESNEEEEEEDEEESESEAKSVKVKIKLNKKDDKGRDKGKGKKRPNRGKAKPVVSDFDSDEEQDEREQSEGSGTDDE

| Compound | DC50 (SMARCA2) | Dmax (SMARCA2) | Fold Selectivity SMARCA4/2 (SMARCA2) | DC50 (SMARCA4) | Dmax (SMARCA4) |
| --- | --- | --- | --- | --- | --- |
| O=C1CC[C@H](c2ccc(N3CCC(CN4CCC(NC(=O)C5(c6ccccc6)CCN(c6cnnc(-c7ccccc7O)c6)CC5)CC45CCC5)CC3)cc2)C(=O)N1 (stereo partly drawn) [Example 39, N-{5-[(1-{4-[(3R)-2,6-dioxopiperidin-3-yl]phenyl}piperidin-4-yl)methyl]-5-azaspiro[3.5]nonan-8-yl}-1-[6-(2-hydroxyphenyl)pyridazin-4-yl]-4-phenylpiperidine-4-carboxamide] | 3.09 nM | 84.8% | 25.67 | 79.3 nM | 53.7% |
| O=C1CCC(c2ccc(OC3CCN(C(=O)C4(c5ccccc5)CCN(c5cnnc(-c6ccccc6O)c5)CC4)CC3)cc2)C(=O)N1 (racemic) [Example 4, rac-(3R)-3-{4-[(1-{1-[6-(2-hydroxyphenyl)pyridazin-4-yl]-4-phenylpiperidine-4-carbonyl}piperidin-4-yl)oxy]phenyl}piperidine-2,6-dione] |  | 16.4% | 1 |  | 9.4% |
| CC(C)c1cc(C2(C(=O)N(C)C3CCN(C4COC5(CCN(c6ccc([C@H]7CCC(=O)NC7=O)cc6)CC5)C4)CC3)CCN(c3cnnc(-c4ccccc4O)c3)CC2)no1 (mixture of isomers) [Example 59, N-{1-[(3RS)-8-{4-[(3R)-2,6-dioxopiperidin-3-yl]phenyl}-1-oxa-8-azaspiro[4.5]decan-3-yl]piperidin-4-yl}-1-[6-(2-hydroxyphenyl)pyridazin-4-yl]-N-methyl-4-[5-(propan-2-yl)-1,2-oxazol-3-yl]piperidine-4-carboxamide] | 11.9 nM | 72.8% | 842 |  | 26% |
| O=C1CC[C@H](c2ccc(C3CCN(CC(=O)N4CCC(S(=O)(=O)NCC5(c6ccccc6)CCN(c6cnnc(-c7ccccc7O)c6)CC5)CC4)CC3)cc2)C(=O)N1 (racemic) [Example 109, rac-1-(2-(4-(4-(2,6-dioxopiperidin-3-yl)phenyl)piperidin-1-yl)acetyl)-n-((1-(6-(2-hydroxyphenyl)pyridazin-4-yl)-4-phenylpiperidin-4-yl)methyl)piperidine-4-sulfonamide] | 76.9 nM | 82.7% | 6 | 498 nM | 67.1% |
| O=C1CCC(c2ccc(OC3CCN(C(=O)C4CCN(C(=O)C5(c6ccccc6)CCN(c6cnnc(-c7ccccc7O)c6)CC5)CC4)CC3)cc2)C(=O)N1 (racemic) [Example 13, rac-(3R)-3-(4-{[1-(1-{1-[6-(2-hydroxyphenyl)pyridazin-4-yl]-4-phenylpiperidine-4-carbonyl}piperidine-4-carbonyl)piperidin-4-yl]oxy}phenyl)piperidine-2,6-dione] |  | 40.3% | 1 |  | 12.3% |
| CN(C(=O)C1(Oc2ccn(C)n2)CCN(c2cnnc(-c3ccccc3O)c2)CC1)C1CCN(CC2CCN(c3ccc([C@H]4CCC(=O)NC4=O)cc3)CC2)CC1 [Example 125, (r)-n-(1-((1-(4-(2,6-dioxopiperidin-3-yl)phenyl)piperidin-4-yl)methyl)piperidin-4-yl)-1-(6-(2-hydroxyphenyl)pyridazin-4-yl)-n-methyl-4-((1-methyl-1h-pyrazol-3-yl)oxy)piperidine-4-carboxamide] | 6.01 nM | 82% | 6 | 36.9 nM | 62.5% |
| O=C1CCC(c2ccc(OCC3CCN(CC4CCN(C(=O)C5(c6ccccc6)CCN(c6cnnc(-c7ccccc7O)c6)CC5)CC4)CC3)cc2)C(=O)N1 (racemic) [Example 11, rac-(3R)-3-[4-({1-[(1-{1-[6-(2-hydroxyphenyl)pyridazin-4-yl]-4-phenylpiperidine-4-carbonyl}piperidin-4-yl)methyl]piperidin-4-yl}methoxy)phenyl]piperidine-2,6-dione] | 21.2 nM | 69.1% | 472.68 |  | 38.9% |
| O=C1CC[C@H](c2ccc(N3CC[C@]4(C3)C[C@@H](N3CC5(CCN(C(=O)C6(c7ccccc7)CCN(c7cnnc(-c8ccccc8O)c7)CC6)CC5)C3)C4)cc2)C(=O)N1 (racemic) [Example 129, (3RS&)-3-{4-[(2rs,4sr)-2-(7-{1-[6-(2-hydroxyphenyl)pyridazin-4-yl]-4-phenylpiperidine-4-carbonyl}-2,7-diazaspiro[3.5]nonan-2-yl)-6-azaspiro[3.4]octan-6-yl]phenyl}piperidine-2,6-dione] | 20.3 nM | 78.2% | 6 | 125 nM | 61% |
| CCN(C(=O)C1(c2ccccc2)CCN(c2cnnc(-c3ccccc3O)c2)CC1)C1CCN(CC2CCN(c3ccc([C@H]4CCC(=O)NC4=O)cc3)CC2)CC1 [Example 184, N-{1-[(1-{4-[(3R)-2,6-dioxopiperidin-3-yl]phenyl}piperidin-4-yl)methyl]piperidin-4-yl}-N-ethyl-1-[6-(2-hydroxyphenyl)pyridazin-4-yl]-4-phenylpiperidine-4-carboxamide] | 4.88 nM | 91.3% | 8 | 37.6 nM | 80.7% |
| Cn1ccc(OC2(C(=O)N3CC4(CN(CCC5CCN(c6cccc7c6n(C)c(=O)n7C6CCC(=O)NC6=O)CC5)C4)C3)CCN(c3cnnc(-c4ccccc4O)c3)CC2)n1 (racemic) [Example 67, rac-3-(4-(4-(2-(6-(1-(6-(2-hydroxyphenyl)pyridazin-4-yl)-4-((1-methyl-1H-pyrazol-3-yl)oxy)piperidine-4-carbonyl)-2,6-diazaspiro[3.3]heptan-2-yl)ethyl)piperidin-1-yl)-3-methyl-2-oxo-2,3-dihydro-1h-benzo[d]imidazol-1-yl)piperidine-2,6-dione] | 0.4 nM | 96.2% | 51 | 20.4 nM | 72.9% |

Results, then the compound that gave them:

| DC50 (SMARCA2) | Dmax (SMARCA2) | Fold Selectivity SMARCA4/2 (SMARCA2) | DC50 (SMARCA4) | Dmax (SMARCA4) | Compound |
| --- | --- | --- | --- | --- | --- |
| 24.4 nM | 77.9% | 6.42 | 156 nM | 57% | O=C1CCC(c2ccc(N3CCC(F)(CN4CC5(C4)CN(C(=O)C4(c6ccccc6)CCN(c6cnnc(-c7ccccc7O)c6)CC4)C5)CC3)nc2)C(=O)N1 (racemic) [Example 19, rac-(3R)-3-(6-{4-fluoro-4-[(6-{1-[6-(2-hydroxyphenyl)pyridazin-4-yl]-4-phenylpiperidine-4-carbonyl}-2,6-diazaspiro[3.3]heptan-2-yl)methyl]piperidin-1-yl}pyridin-3-yl)piperidine-2,6-dione] |
| 40.1 nM | 67.5% | 16 | 659 nM | 23.7% | O=C1CCC(c2ccc(N3CCC(CCN4CC5(CCCN(C(=O)C6(c7ccccc7)CCN(c7cnnc(-c8ccccc8O)c7)CC6)C5)C4)CC3)cc2)C(=O)N1 (racemic) [Example 167, rac-(3R)-3-(4-{4-[2-(6-{1-[6-(2-hydroxyphenyl)pyridazin-4-yl]-4-phenylpiperidine-4-carbonyl}-2,6-diazaspiro[3.5]nonan-2-yl)ethyl]piperidin-1-yl}phenyl)piperidine-2,6-dione] |
| 2.87 nM | 87.7% | 8 | 22.3 nM | 65.6% | Cc1cnn(C2(C(=O)N(C)C3CCN(CC4CCN(c5ccc([C@H]6CCC(=O)NC6=O)cc5)CC4)CC3)CCN(c3cnnc(-c4ccccc4O)c3)CC2)c1 [Example 154, N-{1-[(1-{4-[(3R)-2,6-dioxopiperidin-3-yl]phenyl}piperidin-4-yl)methyl]piperidin-4-yl}-1-[6-(2-hydroxyphenyl)pyridazin-4-yl]-N-methyl-4-(4-methyl-1H-pyrazol-1-yl)piperidine-4-carboxamide] |
|  | 14.1% | 1 |  | 14.6% | O=C1CCC(c2ccc(N3CCC(CN4CC5(C4)CN(C(=O)C4(Cc6ccccc6)CCN(c6cnnc(-c7ccccc7O)c6)CC4)C5)CC3)cc2)C(=O)N1 (racemic) [Example 26, rac-(3R)-3-(4-{4-[(6-{4-benzyl-1-[6-(2-hydroxyphenyl)pyridazin-4-yl]piperidine-4-carbonyl}-2,6-diazaspiro[3.3]heptan-2-yl)methyl]piperidin-1-yl}phenyl)piperidine-2,6-dione] |
| 121 nM | 63.6% | 82.86 |  | 31.5% | O=C1CCC(c2ccc(N3CCC(CN4CCN(C(=O)C5(c6ccccc6)CCN(c6cnnc(-c7ccccc7O)c6)CC5)CC4)CC3)cc2)C(=O)N1 (racemic) [Example 6, rac-(3R)-3-(4-{4-[(4-{1-[6-(2-hydroxyphenyl)pyridazin-4-yl]-4-phenylpiperidine-4-carbonyl}piperazin-1-yl)methyl]piperidin-1-yl}phenyl)piperidine-2,6-dione] |
| 2.18 nM | 90% | 4587 |  | 35.3% | CN(C(=O)C1(c2ccncc2)CCN(c2cnnc(-c3ccccc3O)c2)CC1)C1CCN(CCC2CCN(c3ccc(C4CCC(=O)NC4=O)c(F)c3)CC2)CC1 (racemic) [Example 75, rac-N-{1-[2-(1-{4-[(3R)-2,6-dioxopiperidin-3-yl]-3-fluorophenyl}piperidin-4-yl)ethyl]piperidin-4-yl}-1-[6-(2-hydroxyphenyl)pyridazin-4-yl]-n-methyl-4-(pyridin-4-yl)piperidine-4-carboxamide] |
| 22.6 nM | 73.9% | 442 |  | 50.6% | O=C1CCC(c2ccc(N3C[C@H]4CN(CC(=O)N5CCC6(CC5)CN(C(=O)C5(c7ccccc7)CCN(c7cnnc(-c8ccccc8O)c7)CC5)C6)C[C@@H]4C3)cc2)C(=O)N1 (mixture of isomers) [Example 150, (3RS)-3-{4-[(3aR,6aR)-5-[2-(2-{1-[6-(2-hydroxyphenyl)pyridazin-4-yl]-4-phenylpiperidine-4-carbonyl}-2,7-diazaspiro[3.5]nonan-7-yl)-2-oxoethyl]-octahydropyrrolo[3,4-c]pyrrol-2-yl]phenyl}piperidine-2,6-dione] |
